The values below come from publication PMC7003794, “Chemical Proteomics and Phenotypic Profiling Identifies the Aryl Hydrocarbon Receptor as a Molecular Target of the Utrophin Modulator Ezutromid” (Angewandte Chemie (International Ed. in English), 2020).

The test concerns the target T1, aryl hydrocarbon receptor (AhR) (Mus musculus, UniProt P30561).
T1 construct: purified mouse AhR:ARNT complex; with ARNT
The experiment in a line: fluorescence quenching assay (intrinsic ligand fluorescence) with purified AhR:ARNT. Type of test: binding.

T1 sequence (P30561 10-848): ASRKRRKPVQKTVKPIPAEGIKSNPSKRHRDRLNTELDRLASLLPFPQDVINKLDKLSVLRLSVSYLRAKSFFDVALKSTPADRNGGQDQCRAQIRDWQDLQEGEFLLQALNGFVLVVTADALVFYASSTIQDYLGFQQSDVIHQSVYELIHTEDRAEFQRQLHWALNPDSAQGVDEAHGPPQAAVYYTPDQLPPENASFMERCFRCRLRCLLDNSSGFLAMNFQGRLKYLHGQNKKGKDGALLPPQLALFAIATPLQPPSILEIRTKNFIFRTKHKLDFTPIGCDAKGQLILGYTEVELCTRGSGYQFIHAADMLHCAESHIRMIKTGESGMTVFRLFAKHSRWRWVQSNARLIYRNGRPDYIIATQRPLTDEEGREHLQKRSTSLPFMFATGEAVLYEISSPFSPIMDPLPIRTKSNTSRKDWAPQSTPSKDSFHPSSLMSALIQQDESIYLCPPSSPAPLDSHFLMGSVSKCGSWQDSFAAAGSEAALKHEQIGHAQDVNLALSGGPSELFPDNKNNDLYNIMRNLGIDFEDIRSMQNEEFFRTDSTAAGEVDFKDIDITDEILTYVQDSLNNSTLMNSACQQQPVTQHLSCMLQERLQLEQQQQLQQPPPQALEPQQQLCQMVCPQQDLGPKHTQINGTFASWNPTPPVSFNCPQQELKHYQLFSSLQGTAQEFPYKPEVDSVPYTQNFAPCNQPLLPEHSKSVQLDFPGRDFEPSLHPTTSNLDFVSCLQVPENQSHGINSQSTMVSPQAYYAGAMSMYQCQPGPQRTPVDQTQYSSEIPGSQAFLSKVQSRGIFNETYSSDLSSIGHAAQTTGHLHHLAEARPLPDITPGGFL
T1 sequence (P53762 2-791 partner): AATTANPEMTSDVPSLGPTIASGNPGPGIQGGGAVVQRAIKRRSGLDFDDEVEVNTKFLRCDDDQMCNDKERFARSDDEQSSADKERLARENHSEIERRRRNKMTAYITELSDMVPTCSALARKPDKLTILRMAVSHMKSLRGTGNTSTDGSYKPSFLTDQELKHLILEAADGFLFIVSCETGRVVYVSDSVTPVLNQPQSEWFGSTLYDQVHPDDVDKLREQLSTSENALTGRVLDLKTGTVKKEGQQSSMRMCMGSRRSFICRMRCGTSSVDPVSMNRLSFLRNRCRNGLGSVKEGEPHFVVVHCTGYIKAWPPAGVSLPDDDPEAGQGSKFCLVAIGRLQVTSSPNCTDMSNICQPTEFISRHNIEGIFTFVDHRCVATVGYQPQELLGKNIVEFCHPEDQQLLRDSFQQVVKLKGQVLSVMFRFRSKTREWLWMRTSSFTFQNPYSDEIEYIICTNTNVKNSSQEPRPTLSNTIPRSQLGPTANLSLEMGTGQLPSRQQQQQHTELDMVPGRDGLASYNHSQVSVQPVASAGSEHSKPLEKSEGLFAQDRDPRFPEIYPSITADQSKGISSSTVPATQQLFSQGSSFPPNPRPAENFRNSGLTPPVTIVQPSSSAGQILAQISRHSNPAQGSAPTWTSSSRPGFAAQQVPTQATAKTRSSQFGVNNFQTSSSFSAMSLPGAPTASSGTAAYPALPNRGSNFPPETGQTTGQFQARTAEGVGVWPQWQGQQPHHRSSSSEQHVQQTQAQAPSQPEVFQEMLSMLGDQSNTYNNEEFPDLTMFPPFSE

Take `CCS(=O)(=O)c1ccc2oc(-c3ccc4ccccc4c3)nc2c1` [compound 1, ezutromid]: binding was characterised by a dissociation constant (Kd) of 50.1 ± 22.1 nM.
